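Following 48 hours of exposure in 96-well plates, responses at five concentrations were used to interpolate endpoints linearly. At the GI50, growth is halved. TGI: concentration producing complete growth inhibition.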
Assays:
Experiment in all cases: inhibition of tumour cell growth, NCI panel, 48 h
[1] = tested on: MOLT-4 leukemia
[2] = tested on: OVCAR-8 ovarian
[3] = tested on: HCT-116 colon
[4] = tested on: A549 NSCLC
[5] = tested on: ACHN renal
[6] = tested on: KM12 colon
[7] = tested on: NCI-H460 lung
[8] = tested on: SK-MEL-5 melanoma
[9] = tested on: SK-MEL-2 melanoma
[10] = tested on: UACC-62 melanoma
[11] = tested on: SF-268 CNS
[12] = tested on: RXF 393 renal
[13] = tested on: HOP-18 NSCLC
[14] = tested on: DLD-1 colon
[15] = tested on: NCI-H23 lung
[16] = tested on: HCC-2998 colon
[17] = tested on: 786-0 renal
[18] = tested on: DMS 273 small cell lung
[19] = tested on: SF-539 CNS
[20] = tested on: SNB-75 CNS
[21] = tested on: M14 melanoma
[22] = tested on: XF 498 CNS
[23] = tested on: U251 CNS
[24] = tested on: OVCAR-3 ovarian
[25] = tested on: NCI-H226 lung
[26] = tested on: HCT-15 colon
[27] = tested on: LXFL 529 NSCLC
[28] = tested on: A498 renal
[29] = tested on: KM20L2 colon
[30] = tested on: OVCAR-4 ovarian
[31] = tested on: UO-31 renal
[32] = tested on: TK-10 renal
[33] = tested on: IGROV1 ovarian
[34] = tested on: SN12C renal
[35] = tested on: M19-MEL melanoma
[36] = tested on: SK-OV-3 ovarian
[37] = tested on: CAKI-1 renal
[38] = tested on: K-562 leukemia
[39] = tested on: OVCAR-5 ovarian
[40] = tested on: HT29 colon
[41] = tested on: NCI-H522 lung
[42] = tested on: UACC-257 melanoma
[43] = tested on: RPMI-8226 leukemia
[44] = tested on: HL-60(TB) leukemia
[45] = tested on: MALME-3M melanoma
[46] = tested on: COLO 205 colon
[47] = tested on: SF-295 CNS
[48] = tested on: HOP-62 NSCLC
[49] = tested on: EKVX NSCLC
[50] = tested on: SR leukemia
[51] = tested on: SK-MEL-28 melanoma
[52] = tested on: SNB-19 CNS
[53] = tested on: CCRF-CEM leukemia
[54] = tested on: SNB-78 CNS
[55] = tested on: HOP-92 NSCLC
[56] = tested on: SW-620 colon
[57] = tested on: LOX IMVI melanoma
[58] = tested on: DMS 114 small cell lung

COc1c[c]([Hg][O]C(C)=O)c(OC)c(NC(=O)CC(C)=O)[c]1[Hg][O]C(C)=O
GI50 [1]: 2.32 µM | TGI [1]: 6.85 µM | GI50 [2]: 6.71 µM | TGI [2]: > 19.9 µM | GI50 [3]: 13.1 µM | TGI [3]: 34.8 µM | GI50 [4]: 26 µM | TGI [4]: 45.9 µM | GI50 [5]: 3.01 µM | TGI [5]: 8.53 µM | GI50 [6]: > 43.2 µM | TGI [6]: > 62.1 µM | GI50 [7]: 16.3 µM | TGI [7]: 39 µM | GI50 [8]: 2.75 µM | TGI [8]: 11.2 µM | GI50 [9]: 13.8 µM | TGI [9]: 28.2 µM | GI50 [10]: 11.4 µM | TGI [10]: 24.1 µM | GI50 [11]: 13.6 µM | TGI [11]: 18.9 µM | GI50 [12]: 2.86 µM | TGI [12]: 7.3 µM | GI50 [13]: 1.96 µM | TGI [13]: 4.62 µM | GI50 [14]: 2.25 µM | TGI [14]: 5.18 µM | GI50 [15]: 11.6 µM | TGI [15]: 17.9 µM | GI50 [16]: 15.8 µM | TGI [16]: 30.1 µM | GI50 [17]: 2.48 µM | TGI [17]: 7.71 µM | GI50 [18]: 13.6 µM | TGI [18]: 36.7 µM | GI50 [19]: 12.6 µM | TGI [19]: 28.1 µM | GI50 [20]: 14 µM | TGI [20]: 28 µM | GI50 [21]: 2.11 µM | TGI [21]: 4.56 µM | GI50 [22]: 1.65 µM | TGI [22]: 3.2 µM | GI50 [23]: 12.6 µM | TGI [23]: 27.8 µM | TGI [24]: > 21.1 µM | GI50 [25]: 19.5 µM | TGI [25]: 42.9 µM | GI50 [26]: 3.11 µM | GI50 [27]: 1.42 µM | TGI [27]: 2.85 µM | GI50 [28]: 8.03 µM | TGI [28]: 22.6 µM | GI50 [29]: 14.2 µM | TGI [29]: 30.9 µM | GI50 [30]: 15.9 µM | TGI [30]: 30 µM | GI50 [31]: 19.2 µM | TGI [31]: 33.3 µM | GI50 [32]: 4.46 µM | TGI [32]: 14 µM | GI50 [33]: 11 µM | TGI [33]: 23.9 µM | GI50 [34]: 13.7 µM | TGI [34]: 27.8 µM | GI50 [35]: 8.85 µM | TGI [35]: 22 µM | GI50 [36]: 18.6 µM | TGI [36]: 32.7 µM | GI50 [37]: 2.26 µM | TGI [37]: 4.26 µM | GI50 [38]: 1.48 µM | TGI [38]: 5.53 µM | GI50 [39]: 19.3 µM | TGI [39]: 33.7 µM | GI50 [40]: 4.21 µM | TGI [40]: 19.6 µM | TGI [41]: 0.154 µM | GI50 [42]: 2.73 µM | TGI [42]: 7.46 µM | GI50 [43]: 4.22 µM | TGI [43]: 33.4 µM | GI50 [44]: 2.41 µM | TGI [44]: 5.35 µM | GI50 [45]: 1.53 µM | TGI [45]: 3 µM | GI50 [46]: 2.37 µM | GI50 [47]: > 41.7 µM | TGI [47]: > 55.8 µM | GI50 [48]: 20 µM | TGI [48]: 34.4 µM | GI50 [49]: 19.9 µM | TGI [49]: 36.3 µM | GI50 [50]: 2.59 µM | TGI [50]: > 100 µM | GI50 [51]: 1.83 µM | TGI [51]: 3.61 µM | GI50 [52]: 5.56 µM | TGI [52]: 12.3 µM | GI50 [53]: 1.75 µM | TGI [53]: 5.43 µM

Cc1c(/C=N/NC(=O)c2ccc(Cl)cc2)c(=O)n(-c2ccccc2)n1C
TGI [1]: > 100 µM | TGI [2]: > 100 µM | TGI [54]: > 100 µM | TGI [3]: > 100 µM | TGI [4]: > 100 µM | TGI [5]: > 100 µM | TGI [6]: > 100 µM | TGI [7]: > 100 µM | TGI [9]: > 100 µM | TGI [10]: > 100 µM | TGI [11]: > 100 µM | TGI [12]: > 100 µM | TGI [13]: > 100 µM | TGI [14]: > 100 µM | TGI [15]: > 100 µM | TGI [16]: > 100 µM | TGI [17]: > 100 µM | TGI [18]: > 100 µM | TGI [19]: > 100 µM | TGI [20]: > 100 µM | TGI [21]: > 100 µM | TGI [23]: > 100 µM | TGI [24]: > 100 µM | TGI [25]: > 100 µM | TGI [26]: > 100 µM | TGI [27]: > 100 µM | TGI [55]: > 100 µM | TGI [29]: > 100 µM | TGI [30]: > 100 µM | TGI [31]: > 100 µM | TGI [32]: > 100 µM | TGI [33]: > 100 µM | TGI [34]: > 100 µM | TGI [35]: > 100 µM | TGI [36]: > 100 µM | TGI [38]: > 100 µM | TGI [40]: > 100 µM | TGI [41]: > 100 µM | TGI [42]: > 100 µM | TGI [43]: > 100 µM | TGI [44]: > 100 µM | TGI [45]: > 100 µM | TGI [56]: > 100 µM | TGI [46]: > 100 µM | TGI [47]: > 100 µM | TGI [48]: > 100 µM | TGI [49]: > 100 µM | TGI [57]: > 100 µM | TGI [50]: > 100 µM | TGI [51]: > 100 µM | TGI [52]: > 100 µM | TGI [58]: > 100 µM | TGI [53]: > 100 µM

— PubChem BioAssay (NCI)
